For 24 compounds, T/C results are on record in PubChem BioAssay AID330 (DTP/NCI, 2004).

“And” between values parts separate entries of the source, which are not always exact repeats. Equal entries are not always repeated. Inconclusive results and toxic doses are left out.

In the assay the test system is P388 leukemia ip, CD2F1 mice, survival T/C. The assay can be described thus: NCI In Vivo Anticancer Drug Screen. Data for tumor model P388 Leukemia (intraperitoneal) in CD2F1 (CDF1) mice. The note with it: endpoint: median survival time, higher = longer survival. The method, boiled down:
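Mice carrying the transplanted tumor received test compound or vehicle. Survival was recorded in each group, and the value is the treated-group measurement divided by that of the vehicle-treated control group.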

[1] abbreviates: dose: 60.0 mg/kg/injection, schedule: Q01DX005 (ip), vehicle: saline with Tween-80.
Setting [2] is: dose: 120.0 mg/kg/injection, schedule: Q01DX005 (ip), vehicle: saline with Tween-80.
The mark [3] stands for this setting: dose: 240.0 mg/kg/injection, schedule: Q01DX005 (ip), vehicle: saline with Tween-80.
[4] abbreviates: dose: 50.0 mg/kg/injection, schedule: Q01DX009 (ip), vehicle: saline with Tween-80.
Setting [5] is: dose: 100.0 mg/kg/injection, schedule: Q01DX009 (ip), vehicle: saline with Tween-80.
Where [6] appears, read: dose: 200.0 mg/kg/injection, schedule: Q01DX009 (ip), vehicle: saline with Tween-80.
[7] abbreviates: dose: 15.0 mg/kg/injection, schedule: Q01DX005 (ip), vehicle: saline with Tween-80.
[8] abbreviates: dose: 30.0 mg/kg/injection, schedule: Q01DX005 (ip), vehicle: saline with Tween-80.
[9] abbreviates: dose: 50.0 mg/kg/injection, schedule: Q01DX005 (ip), vehicle: saline with Tween-80.
Where [10] appears, read: dose: 100.0 mg/kg/injection, schedule: Q01DX005 (ip), vehicle: saline with Tween-80.
Where [11] appears, read: dose: 50.0 mg/kg/injection, schedule: Q01DX009 (ip), vehicle: saline.
The mark [12] stands for this setting: dose: 100.0 mg/kg/injection, schedule: Q01DX009 (ip), vehicle: saline.
Where [13] appears, read: dose: 50.0 mg/kg/injection, schedule: Q01DX005 (ip), vehicle: Klucel (hydroxypropylcellulose) (HPC).
Setting [14] is: dose: 100.0 mg/kg/injection, schedule: Q01DX005 (ip), vehicle: Klucel (hydroxypropylcellulose) (HPC).
Setting [15] is: dose: 100.0 mg/kg/injection, schedule: Q04DX003 (ip), vehicle: Klucel (hydroxypropylcellulose) (HPC).
Where [16] appears, read: dose: 200.0 mg/kg/injection, schedule: Q04DX003 (ip), vehicle: Klucel (hydroxypropylcellulose) (HPC).
Where [17] appears, read: dose: 200.0 mg/kg/injection, schedule: Q01DX005 (ip), vehicle: Klucel (hydroxypropylcellulose) (HPC).

As for `CN=C(N)N`, the T/C runs as follows: (dose: 50.0 mg/kg/injection, schedule: Q01DX001 (ip), vehicle: saline) 100 % of control; (dose: 100.0 mg/kg/injection, schedule: Q01DX001 (ip), vehicle: saline) 98 % of control; (dose: 200.0 mg/kg/injection, schedule: Q01DX001 (ip), vehicle: saline) 100 % of control; (dose: 400.0 mg/kg/injection, schedule: Q01DX001 (ip), vehicle: saline) 101 % of control.

For the compound `Cc1cc2cc3c(c(C(=O)O)c2o1)C(=O)c1ccc2ccccc2c1C3`, the T/C runs as follows: under setting [1], 97 % of control; under setting [2], 101 % of control; under setting [3], 94 % of control.

For `OCC1CC(c2ccccc2)=NO1` (stereo not given), the T/C (dose: 60.0 mg/kg/injection, schedule: Q01DX005 (ip), vehicle: Klucel (hydroxypropylcellulose) (HPC)) is 101 % of control; the T/C (dose: 120.0 mg/kg/injection, schedule: Q01DX005 (ip), vehicle: Klucel (hydroxypropylcellulose) (HPC)) is 100 % of control; the T/C (dose: 240.0 mg/kg/injection, schedule: Q01DX005 (ip), vehicle: Klucel (hydroxypropylcellulose) (HPC)) was 101 % of control.

`Cc1cc2nc3[nH]c(=O)c4ccccc4c(=O)n3c2cc1C`: the T/C reads like this: (dose: 100.0 mg/kg/injection, schedule: Q01DX001 (ip), vehicle: Klucel (hydroxypropylcellulose) (HPC)) 98 % of control; (dose: 200.0 mg/kg/injection, schedule: Q01DX001 (ip), vehicle: Klucel (hydroxypropylcellulose) (HPC)) 92 % of control.

On to `NC(N)=Nc1c(N)ncnc1N`, for which the T/C by setting is: under setting [1], 104 % of control and 95 % of control; under setting [2], 100 % of control; under setting [3], 96 % of control and 98 % of control.

As for `O=C1NN=C2CCCCCCCCCCC12Cl` (stereo not given), the T/C is, setting by setting: under setting [4], 108 % of control; under setting [5], 106 % of control; under setting [6], 106 % of control.

Turning to `O=C(N/N=C/c1ccc(C(F)(F)F)cc1)c1ccncc1`, the T/C runs as follows: under setting [7], 106 % of control; under setting [8], 101 % of control; under setting [1], 101 % of control and 97 % of control; under setting [2], 100 % of control; under setting [3], 100 % of control.

As for `CCOC(=O)/C(Cl)=N/Nc1ccccc1`, the T/C was 97 % of control under setting [9] and 111 % of control under setting [10].

In the case of `O=S=C(c1ccccc1)N1CCc2ccccc21`, the T/C runs as follows: (dose: 25.0 mg/kg/injection, schedule: Q01DX009 (ip), vehicle: saline) 97 % of control; under setting [11], 97 % of control; under setting [12], 89 % of control.

As for `O=C(CBr)Nc1c(Br)cc(F)cc1Br`, the T/C by setting is: under setting [4], 100 % of control; under setting [5], 92 % of control; under setting [6], 100 % of control.

For the compound `CC[C@@]1(O)C[C@H](OC2CC(N(C)C)C(OC3CC(O)C(OC4CC(O)C(O)C(C)O4)C(C)O3)C(C)O2)c2c(cc3c(c2O)C(=O)c2c(O)ccc(O)c2C3=O)[C@H]1C(=O)OC` (stereo not given in full), the T/C runs as follows: (dose: 1.8 mg/kg/injection, schedule: Q04DX003 (ip), vehicle: water) 157 % of control; (dose: 2.7 mg/kg/injection, schedule: Q04DX003 (ip), vehicle: water) 155 % of control; (dose: 3.8 mg/kg/injection, schedule: Q01DX001 (ip), vehicle: other) 163 % of control; (dose: 7.5 mg/kg/injection, schedule: Q01DX001 (ip), vehicle: other) 157 % of control.

As for `Cc1nc(Br)c(Br)n1Cc1ccccc1`, the T/C reads like this: under setting [1], 99 % of control; under setting [2], 99 % of control; under setting [3], 105 % of control.

For `CCC1C2Cc3ccc(O)cc3C1(CC)CCN2C` (stereo not given), the T/C (dose: 6.25 mg/kg/injection, schedule: Q01DX005 (ip), vehicle: saline with Tween-80) was 99 % of control; the T/C (dose: 12.5 mg/kg/injection, schedule: Q01DX005 (ip), vehicle: saline with Tween-80) is 99 % of control; the T/C (dose: 25.0 mg/kg/injection, schedule: Q01DX005 (ip), vehicle: saline with Tween-80) is 95 % of control; the T/C under setting [13] was 103 % of control; the T/C under setting [9] was 100 % of control; the T/C under setting [14] is 106 % of control.

As to `FC(F)(F)c1ccc2c(c1)N=C(NNC1=Nc3cc(C(F)(F)F)ccc3SC1)CS2`, the T/C was 91 % of control under setting [7] and 86 % of control under setting [8].

For the compound `Cc1ccc(S(=O)(=O)N2C(=O)CCC2=O)cc1`, the T/C is 106 % of control under setting [15]; 105 % of control (dose: 100.0 mg/kg/injection, schedule: Q04DX003 (ip), vehicle: saline with Tween-80); 120 % of control under setting [16]; 100 % of control (dose: 200.0 mg/kg/injection, schedule: Q04DX003 (ip), vehicle: saline with Tween-80); 110 % of control (dose: 400.0 mg/kg/injection, schedule: Q04DX003 (ip), vehicle: saline with Tween-80).

`CCC1C(OC)=CC(CC)(C(=O)OC)C=C1OC` (stereo not given): the T/C is 100 % of control under setting [9]; 107 % of control under setting [10]; 107 % of control (dose: 200.0 mg/kg/injection, schedule: Q01DX005 (ip), vehicle: saline with Tween-80).

As for `COc1cc([N+](=O)[O-])ccc1N=Cc1cccs1`, the T/C under setting [11] is 97 % of control; the T/C under setting [12] was 93 % of control; the T/C (dose: 200.0 mg/kg/injection, schedule: Q01DX009 (ip), vehicle: saline) is 101 % of control.

Turning to `CCO/C=N/n1c(C(=O)NCCCOC)nc2ccccc2c1=O`, the T/C runs as follows: under setting [13], 107 % of control; under setting [14], 94 % of control; under setting [17], 100 % of control.

With `O=C1CC(C(Cl)(Cl)Cl)O1` (stereo not given), the T/C is 97 % of control (dose: 25.0 mg/kg/injection, schedule: Q04DX003 (ip), vehicle: saline); 97 % of control (dose: 50.0 mg/kg/injection, schedule: Q04DX003 (ip), vehicle: saline); 99 % of control (dose: 100.0 mg/kg/injection, schedule: Q04DX003 (ip), vehicle: saline); 99 % of control (dose: 200.0 mg/kg/injection, schedule: Q04DX003 (ip), vehicle: saline).

With `Cc1cc(=O)[nH]c2ccc3ccccc3c12`, the T/C is 91 % of control (dose: 12.5 mg/kg/injection, schedule: Q01DX005 (ip), vehicle: Klucel (hydroxypropylcellulose) (HPC)); 91 % of control (dose: 25.0 mg/kg/injection, schedule: Q01DX005 (ip), vehicle: Klucel (hydroxypropylcellulose) (HPC)); 86 % of control under setting [13].

Consider `C1COC2(CCC3(CC2)OCCO3)O1`, for which the T/C by setting is: (dose: 25.0 mg/kg/injection, schedule: Q04DX003 (ip), vehicle: Klucel (hydroxypropylcellulose) (HPC)) 100 % of control; (dose: 50.0 mg/kg/injection, schedule: Q04DX003 (ip), vehicle: Klucel (hydroxypropylcellulose) (HPC)) 103 % of control; (dose: 100.0 mg/kg/injection, schedule: Q01DX009 (ip), vehicle: saline sonified) 111 % of control; under setting [15], 101 % of control; (dose: 200.0 mg/kg/injection, schedule: Q01DX009 (ip), vehicle: saline sonified) 100 % of control; under setting [16], 100 % of control. Also, the T/C is, setting by setting: (dose: 400.0 mg/kg/injection, schedule: Q01DX009 (ip), vehicle: saline sonified) 100 % of control; (dose: 400.0 mg/kg/injection, schedule: Q04DX003 (ip), vehicle: Klucel (hydroxypropylcellulose) (HPC)) 99 % of control.

For the compound `CC(=O)Nc1cscc1NC(C)=O`, the T/C by setting is: (dose: 25.0 mg/kg/injection, schedule: Q01DX009 (ip), vehicle: saline with Tween-80) 101 % of control; under setting [4], 94 % of control; under setting [5], 100 % of control; under setting [6], 101 % of control.

Consider `CCOC(=O)C1=C(c2ccccc2)OC(N)=C(C#N)C1c1ccccc1` (stereo not given), for which the T/C by setting is: under setting [13], 107 % of control; under setting [14], 103 % of control; under setting [17], 101 % of control.

For the compound `COc1ccc2c(c1)[C@]1(C)CCN(C)[C@@H]1N2C`, the T/C was 105 % of control (dose: 12.5 mg/kg/injection, schedule: Q01DX005 (ip), vehicle: saline); 98 % of control (dose: 25.0 mg/kg/injection, schedule: Q01DX005 (ip), vehicle: saline); 105 % of control (dose: 50.0 mg/kg/injection, schedule: Q01DX005 (ip), vehicle: saline).
